Measurements as given in ChEMBL document CHEMBL4627313, “Discovery of sulfonamides and 9-oxo-2,8-diazaspiro[5,5]undecane-2-carboxamides as human kynurenine aminotransferase 2 (KAT2) inhibitors” (Bioorg Med Chem Lett, 2020).
pIC50: −log10 of the molar value.

Columns and labels:
[1] = molecular target: T1, Kynurenine/alpha-aminoadipate aminotransferase, mitochondrial (Homo sapiens, UniProt Q8N5Z0); test: Reversible inhibition of recombinant human KAT2 assessed as reduction in kynurenic acid formation using L-kynurenine as substrate by fluorescence assay
Target sequence in this assay (Q8N5Z0 whole entry): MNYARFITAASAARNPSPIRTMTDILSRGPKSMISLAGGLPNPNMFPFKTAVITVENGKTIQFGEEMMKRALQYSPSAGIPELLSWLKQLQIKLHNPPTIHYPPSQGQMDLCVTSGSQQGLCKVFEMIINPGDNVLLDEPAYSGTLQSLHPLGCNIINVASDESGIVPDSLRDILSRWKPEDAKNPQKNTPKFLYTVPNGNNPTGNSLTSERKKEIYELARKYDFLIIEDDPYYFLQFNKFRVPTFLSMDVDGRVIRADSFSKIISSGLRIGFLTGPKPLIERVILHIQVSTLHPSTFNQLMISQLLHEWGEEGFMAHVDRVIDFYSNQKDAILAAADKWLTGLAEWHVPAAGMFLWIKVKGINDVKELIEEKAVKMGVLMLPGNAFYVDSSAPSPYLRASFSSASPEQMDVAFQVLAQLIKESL

[2] = molecular target: T1, Kynurenine/alpha-aminoadipate aminotransferase, mitochondrial; test: Reversible inhibition of recombinant human KAT2 assessed as reduction in kynurenic acid formation at 50 uM using L-kynurenine as substrate by fluorescence assay relative to control
Target sequence in this assay (Q8N5Z0 30-425 limits assumed): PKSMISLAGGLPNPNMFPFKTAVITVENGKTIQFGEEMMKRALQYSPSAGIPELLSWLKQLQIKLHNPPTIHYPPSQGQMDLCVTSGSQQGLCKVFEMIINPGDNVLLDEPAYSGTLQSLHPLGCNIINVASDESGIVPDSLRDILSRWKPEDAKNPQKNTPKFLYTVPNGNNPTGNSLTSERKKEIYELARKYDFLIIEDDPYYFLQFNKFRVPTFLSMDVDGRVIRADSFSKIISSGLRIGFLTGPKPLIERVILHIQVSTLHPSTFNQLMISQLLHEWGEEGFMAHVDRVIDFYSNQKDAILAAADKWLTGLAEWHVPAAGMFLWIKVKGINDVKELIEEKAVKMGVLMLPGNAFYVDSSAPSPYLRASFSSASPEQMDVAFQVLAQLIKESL

[3] = molecular target: T1, Kynurenine/alpha-aminoadipate aminotransferase, mitochondrial; test: Binding affinity to recombinant human KAT2 assessed as change in temperature by thermal shift assay
Target sequence in this assay (Q8N5Z0 30-425 limits assumed): as above

Row | Compound | pIC50 [1] | inhibition [2] | deltaT [3]
1 | CCc1cccc(NC(=O)N2CCCC3(CCC(=O)N(CCC(C)C)C3)C2)c1 (racemic) | 5.10 |  | 
2 | O=S(=O)(Nc1nnc(CC2CCCC2)o1)c1ccccc1 |  | 47% | 
3 | O=S(=O)(Nc1nnc(C2(c3ccccc3)CC2)s1)c1cc(F)cc(F)c1 | 4.80 | 88% | 1.7 °C
4 | O=S(=O)(NC1CCNC1)c1ccc(Cl)cc1C(F)(F)F (stereo unspecified) |  | 57% | 
5 | CCc1cccc(NC(=O)N2CCCC3(CCC(=O)N(CCC(C)C)C3)C2)c1 (stereo in doubt; 7 E1) | 5.36 |  | 
6 | CCc1cccc(NC(=O)N2CCCC3(CCC(=O)N(CCC(C)C)C3)C2)c1 (stereo in doubt; 7 E2) | 4.01 |  | 
7 | CC(C)C(Cc1nnc(NS(=O)(=O)c2cc(F)cc(F)c2)s1)c1cccc(F)c1 (stereo unspecified) | 5.80 |  | 

The next lines start with the values.

Row | pIC50 [1] | inhibition [2] | deltaT [3] | Compound
8 | 6.09 |  |  | Cc1ccc(NC(=O)N2CCCC3(CCC(=O)N(CCC(C)C)C3)C2)cc1Cl (racemic)
9 | 4.02 |  |  | O=C1CCC2(CCCN(C(=O)Nc3ccc(F)c(Cl)c3)C2)CN1CC1CC1 (stereo in doubt; 10 E2)
10 | 5.35 |  |  | Cc1cc(C)cc(NC(=O)N2CCCC3(CCC(=O)N(C4CC4)C3)C2)c1 (stereo in doubt; 9 E1)
11 | 5.62 |  |  | O=C1CCC2(CCCN(C(=O)Nc3ccc(F)c(Cl)c3)C2)CN1CC1CC1 (stereo in doubt; 10 E1)
12 | 4.13 |  |  | Cc1cc(C)cc(NC(=O)N2CCCC3(CCC(=O)N(C4CC4)C3)C2)c1 (stereo in doubt; 9 E2)
13 | < 4.00 |  |  | COc1ccc(NC(=O)N2CCCC3(CCC(=O)N(C4CC4)C3)C2)cc1 (stereo in doubt; 11 E1)
14 | 4.81 |  |  | COc1ccc(NC(=O)N2CCCC3(CCC(=O)N(C4CC4)C3)C2)cc1 (stereo in doubt; 11 E2)
